Target: T1, GR22e/GR32a/GR66a (Drosophila melanogaster, UniProt P58953+Q9VKJ7+Q9VSH2)
T1 construct: full-length receptors co-expressed in Drosophila S2 cells (with EGFP) and in sweet GRNs via UAS/Gr64f-GAL4
T1 sequence (P58953 1-389): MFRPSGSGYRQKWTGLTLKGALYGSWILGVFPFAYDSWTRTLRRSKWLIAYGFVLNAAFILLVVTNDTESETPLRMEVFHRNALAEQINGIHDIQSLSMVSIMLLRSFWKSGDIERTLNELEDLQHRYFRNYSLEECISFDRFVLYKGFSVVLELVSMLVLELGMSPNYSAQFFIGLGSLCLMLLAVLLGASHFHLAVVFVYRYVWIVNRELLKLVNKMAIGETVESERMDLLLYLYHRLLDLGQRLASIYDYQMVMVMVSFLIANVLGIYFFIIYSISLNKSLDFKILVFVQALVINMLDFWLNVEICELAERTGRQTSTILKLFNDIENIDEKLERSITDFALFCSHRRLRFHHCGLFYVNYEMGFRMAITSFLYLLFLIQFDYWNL
T1 sequence (Q9VKJ7 1-461): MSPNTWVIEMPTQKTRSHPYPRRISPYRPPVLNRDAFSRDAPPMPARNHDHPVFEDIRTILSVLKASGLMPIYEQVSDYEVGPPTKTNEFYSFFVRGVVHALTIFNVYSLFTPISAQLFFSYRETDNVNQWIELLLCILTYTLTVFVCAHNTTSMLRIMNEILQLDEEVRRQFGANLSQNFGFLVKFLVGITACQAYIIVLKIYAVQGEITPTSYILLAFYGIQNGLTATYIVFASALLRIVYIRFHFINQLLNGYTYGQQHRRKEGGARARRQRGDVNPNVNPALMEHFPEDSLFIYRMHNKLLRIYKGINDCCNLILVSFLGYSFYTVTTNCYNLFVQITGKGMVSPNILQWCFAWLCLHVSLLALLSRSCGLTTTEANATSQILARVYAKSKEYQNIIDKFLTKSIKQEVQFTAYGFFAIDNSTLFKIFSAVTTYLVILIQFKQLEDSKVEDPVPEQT
T1 sequence (Q9VSH2 1-527): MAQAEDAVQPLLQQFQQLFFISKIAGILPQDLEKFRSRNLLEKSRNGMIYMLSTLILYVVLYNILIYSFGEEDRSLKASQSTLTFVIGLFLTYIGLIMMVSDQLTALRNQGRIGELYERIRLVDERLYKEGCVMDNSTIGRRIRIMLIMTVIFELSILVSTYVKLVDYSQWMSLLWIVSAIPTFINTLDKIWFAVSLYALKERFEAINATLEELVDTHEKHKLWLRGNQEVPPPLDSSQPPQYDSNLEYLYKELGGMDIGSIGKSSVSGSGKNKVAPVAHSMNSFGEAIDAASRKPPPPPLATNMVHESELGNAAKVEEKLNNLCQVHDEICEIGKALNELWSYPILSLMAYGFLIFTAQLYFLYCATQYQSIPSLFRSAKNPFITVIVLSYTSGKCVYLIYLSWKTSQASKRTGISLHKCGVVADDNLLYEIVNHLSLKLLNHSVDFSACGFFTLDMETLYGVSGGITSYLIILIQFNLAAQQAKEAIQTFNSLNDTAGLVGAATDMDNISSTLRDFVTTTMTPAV
Experiment: whole-cell patch clamp of S2 cells; tip recording of L-type sensilla misexpressing the receptors
Format: cell-based
Conditions: agonist; S2 cells pH 7.4, room temperature, voltage ramp -80 to +80 mV; sensilla 1 mM

COc1ccc2cc3[n+](cc2c1OC)CCc1cc2c(cc1-3)OCO2 [BER, berberine]
whole-cell patch clamp of S2 cells; tip recording of L-type sensilla misexpressi: both Gr combinations confer sensitivity to LOB, BER, and DEN on S2 cells

CC[N+](CC)(CC(=O)Nc1c(C)cccc1C)Cc1ccccc1 [DEN, denatonium]
whole-cell patch clamp of S2 cells; tip recording of L-type sensilla misexpressi: both Gr combinations confer sensitivity to LOB, BER, and DEN on S2 cells

CN1[C@@H](CC(=O)c2ccccc2)CCC[C@H]1C[C@H](O)c1ccccc1 [LOB, lobeline]
whole-cell patch clamp of S2 cells; tip recording of L-type sensilla misexpressi: both Gr combinations confer sensitivity to LOB, BER, and DEN on S2 cells

O=C1C[C@@H]2OCC=C3CN4CC[C@]56c7ccccc7N1[C@H]5[C@H]2[C@H]3C[C@H]46 [STR, strychnine]
whole-cell patch clamp of S2 cells; tip recording of L-type sensilla misexpressi: GR22e/GR32a/GR66a-expressing S2 cells also respond to STR

— PMC5684318, “Heterogeneity in the Drosophila gustatory receptor complexes that detect aversive compounds” (Nature Communications, 2017)
